Experimental data as given in ChEMBL document CHEMBL1131835, “Synthesis and biological evaluation of conformationally restricted Gabapentin analogues” (Bioorg Med Chem Lett, 1999).

Assay: Displacement of [3H]gabapentin from alpha2-delta subunit of calcium channel

| Structure (SMILES) | IC50 |
| --- | --- |
| O=C(O)[C@@H]1CNCC12CCCCC2 | > 10000 nM |
| O=C(O)C1NCC12CCCCC2 (configuration not stated) | 1500 nM |
| O=C(O)C1CCNCC12CCCCC2 (configuration not stated) | > 10000 nM |
| O=C(O)[C@H]1CNCC12CCCCC2 | 120 nM |
| O=C(O)C[C@]12CCCC[C@H]1NC2 | > 10000 nM |
| O=C(O)C[C@]12CCCC[C@H]1CNC2 | > 10000 nM |
